These results are taken from PMC3406030, “Structure of an MmyB-Like Regulator from C. aurantiacus, Member of a New Transcription Factor Family Linked to Antibiotic Metabolism in Actinomycetes” (PLoS ONE, 2012).

One assay deals with T1, MltR (Caur_2278) (Chloroflexus aurantiacus, UniProt A9WGF5).
T1 construct: full length, 291 residues, SeMet derivative; N-terminal His tag cut by TEV leaving Gly0; expressed in E. coli; dimer in crystal, monomer by size exclusion
T1 sequence (A9WGF5 1-291): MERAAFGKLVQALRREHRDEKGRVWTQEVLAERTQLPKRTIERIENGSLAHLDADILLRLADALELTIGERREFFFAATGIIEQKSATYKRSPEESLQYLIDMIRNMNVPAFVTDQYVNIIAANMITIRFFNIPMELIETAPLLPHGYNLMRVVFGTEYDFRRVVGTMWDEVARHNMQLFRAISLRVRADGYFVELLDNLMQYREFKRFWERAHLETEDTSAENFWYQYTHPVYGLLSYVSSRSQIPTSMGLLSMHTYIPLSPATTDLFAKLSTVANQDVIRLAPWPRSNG
Briefly: X-ray crystallography (SAD, […] Å). In kind it is binding. Particulars: co-purified ligand, none added; identity tentative, modelled from electron density (related fatty acid, mixture or PEG fragment not excluded); PAS-like C-terminal domain; pH 9.1, 277 K.

The target of assay [1] is MmyB-like transcription regulator MltR (Caur_2278) from Chloroflexus aurantiacus (Chloroflexus aurantiacus J-10-fl) (UniProt A9WGF5). The assay can be described thus: crystal structure; SeMet MltR, tag removed, 11.1 mg/ml; 0.2M NaCl, 10.5% polyethylene glycol 8000, 0.1M CHES pH 9.1, 277 K; space group C2, three monomers (1.5 dimers) in the asymmetric unit; bound myristic acid.

For the compound `CCCCCCCCCCCCCC(=O)O` [MYR, myristic acid], the “X-ray crystallography (SAD, 2.3 Å)” value at MltR (Caur_2278) is “additional electron density in the putative ligand-binding site clearly indicated the presence of a fatty acid-type ligand”. One may read the stoichiometry N as a count of units in the complex or per binding partner. Compound “MmyB-like transcription regulator MltR (Caur_2278) from Chloroflexus aurantiacus (from UniProt A9WGF5 1-291) (natural protein)” showed a stoichiometry N in assay [1] of 2.
